From publication PMC11778240, “Synthesis and preclinical evaluation of tigilanol tiglate analogs as latency-reversing agents for the eradication of HIV” (Science Advances, 2025)

Columns and labels:
HIV = conditions: HIV-infected, ART-treated humanized mice, cited from earlier work
NF-κB pathway = test: NF-κB activation assay, A549 cells with SEAP reporter; assay type: cell-based, Human; conditions: 24 hours after dosing, A549 cells
Description: As a high-throughput method of screening compounds for their ability to get into cells and activate immunological pathways related to HIV latency reversal ([46], [70]), we conducted an NF-κB reporter assay using A549 cells stably integrated with a secreted embryonic alkaline phosphatase reporter under the control of a promoter fused to five NF-κB binding sites (Fig. 7B) ([48], [70], [71]).
Human A549-Dual™ Cells supplied by InvivoGen (Cat. code a549d-nfis) and CHO-K1 cells were passaged when about 90% confluency was reached (approximately every three days). With each passage, media was aspirated from the cell layer, which was then washed with PBS. Following aspiration of the PBS, cells were detached from the culture flask with 0.25% GibcoTM Trypsin-EDTA and transferred to a 50 mL conical, which was volumed up with complete pre-warmed DMEM (4.5 g/L glucose, 10% FBS, and 1% Pen-Strep-Glutamine (100 X, 50 mg/mL)) or Ham's F-12K (Kaighn's) Medium supplemented with 10% FBS and 1% Pen-Strep (100 X, 50 mg/mL).
This conical was spun down at 1800 rpm for 3 minutes, the supernatant was removed, and cells were resuspended in their respective fresh, pre-warmed media. To count cells, 10 μL of resuspended cells were added to a sterile microcentrifuge tube and mixed with 10 μL of trypan blue after which 10 μL of the mixture was pipetted into a Countess chamber slide. A Countess™ 3 Automated Cell Counter was subsequently utilized to determine cell viability and concentration.
1 x 10^6 cells were seeded with each passage into a T75 culture flask, and cells were incubated at […]
Human A549 lung carcinoma cells (InvivoGen Cat. code a549d-nfis), stably integrated with a secreted embryonic alkaline phosphatase (SEAP) reporter, allow for the activity of the NF-κB pathway to be monitored. The SEAP reporter is under control of the interferon β (IFN-β) minimal promoter, which is fused to five NF-κB binding sites.
5 × 10^4 A549 cells were plated on Corning® 96 Well TC-Treated Microplates (CLS3595) in 180 μl of pre-warmed DMEM (4.5 g/L glucose, 10% heat-inactivated FBS (30 min at 56 ℃), and 1% Pen-Strep-Glutamine (100 X, 50 mg/mL)). Note that if cells were grown in media containing FBS that is not heat-inactivated, media will contain alkaline phosphatase. In this case, all supernatant must thoroughly be aspirated from the cell pellet obtained after centrifugation before resuspending cells in media containing heat inactivated FBS for plating. Following incubation at 37 °C in 5% CO2 for approximately 24 hours to allow for cell adherence onto the 96 well plate, 1.8 μL of each compound dissolved in DMSO was added in quadruplicate to their respective wells to achieve a final compound concentration of 1500 nM, 500 nM, or 50 nM. 1.8 μL of DMSO was added to wells as negative controls while wells treated with EBC-46 served as positive controls. 24 hours following compound addition, 180 μL of QUANTI-BlueTM Solution (InvivoGen Cat. code rep-qbs)- medium containing QB buffer and QB Reagent for detection and quantification of alkaline phosphatase- were added into wells on a new clear flat-bottom 96-well plate. 20 μL of supernatant of either SEAP-expressing cells incubated with compound or SEAP-expressing cells incubated with DMSO only were added to the wells in the new 96-well plate containing QUANTI-BlueTM Solution. Supernatant and QUANTI-BlueTM Solution were incubated at 37 °C in 5% CO2 for approximately an hour and a half. Following incubation, optical density (OD) at 630 nm was measured for each well using a BioTek Synergy H1 microplate reader under normal read speed and with a delay of 100 msec.

J-Lat clone 10.6 cells = test: J-Lat HIV latency reversal assay (GFP expression); assay type: cell-based, Human; conditions: J-Lat 10.6; for HIV latency reversal time course in words: over 48 hours
Description: Having shown that our lead compounds bind cell-free PKC isoforms, enter cells, translocate PKC-GFP fusion proteins, and activate NF-κB transcription factors, we next set out to determine whether our analogs were capable of reversing HIV from latency. We performed in vitro assays using T lymphocyte J-Lat clone 10.6, which contains a latent near full-length replication-incompetent integrated HIV DNA genome ([72]). J-Lat 10.6 lacks two viral genes, env and nef, which encode for the envelope protein and an accessory protein, respectively, and thus cannot initiate a spreading HIV infection. The integrated HIV provirus also encodes a GFP reporter gene, allowing latency reversal to be measured by quantification of GFP expression (fig. S1). […] In this latency reversal assay, we quantified GFP expression 48 hours after compound addition and observed bryostatin 1 to be maximally effective at concentrations of 40 nM or higher with latency reversal in 12% of cells (Fig. 8). Given the efficacy of bryostatin 1 as an LRA ([73], [74]), EBC-46 and many of its analogs tested in this J-Lat assay induced latency reversal in >90% of cells. […] SUW427, an esterase-releasable prodrug of EBC-46, also performed similarly to EBC-46 with a maximum efficacy of latency reversal in >90% of cells at a dose of 250 nM. […] The gradual release of EBC-46 from its prodrug form provides an alternative mode of administration that avoids the bolus effect associated with rapid drug administration ([17]). […] This is consistent with its lack of activity in the NF-κB activation assay and its design as a negative control as it is structurally similar to EBC-46 but unable to bind to the C1 domain of PKC at the concentrations used in this assay as it lacks a complete pharmacophore.
HIV latency reversal in-vitro assay
Human T Lymphocyte J-Lat Full Length Cell Line 10.6 (cat #9849) was obtained through the NIH HIV Reagent Program, Division of AIDS, NIAID, NIH and was contributed to the NIH HIV Reagent Program by Dr. Eric Verdin (70). J-Lat 10.6 cells were plated at 5 × 10^5 cells in 180 μL of RF10 media consisting of RPMI media supplemented with 1% Penicillin/Streptomycin and 10% Fetal Bovine Serum (FBS) in 96 -well U -bottom plates. J -Lat 10.6 cells were then stimulated for 48 hr by adding 20 μL of newly designed and synthesized tigilanol tiglate analogs, PKC modulators (bryostatin 1) as our positive control or med ia only (mock) as our negative control. Our negative control was RF10 media as the tigilanol tiglate analogs were freshly diluted with RF10 prior to plating. The final volume was 200 μL per well. Experiments were performed in three independent biological replicates, each completed in technical duplicates (n = 6). After 48 hr stimulation, 96 - well U -bottom plates were centrifuged at 296 RCF for 7 minutes to pellet cells, which were resusp ended in 200 μL of freshly prepared 2% paraformaldehyde (PFA) in PBS. GF P expression was measured 24 -hours post -fixation using the FITC channel on a LSR Fortessa (BD Biosciences) flow cytometer. Data analysis was conducted with FlowJo software version 10.8.1.

latent HIV = conditions: cited from earlier work

C=C1C[C@H]2C[C@]3(O)O[C@H](C[C@@H](O)CC(=O)O[C@@H](CO)C[C@@H]4C/C(=C\C(=O)OC)[C@H](OC(=O)CCCCCCC)[C@@](O)(O4)C(C)(C)/C=C/[C@@H](C1)O2)C[C@H](OC(C)=O)C3(C)C [SUW133]
animals not rebounding in vivo after ART discontinuation (HIV; with natural killer cells as kill arm): 40%
effect on HIV rebound in words (HIV; administered alone): capable of delaying rebound when administered alone

CC=C(C)C(=O)OC1C(C)C2(O)C(C3OC3(COC(=O)OCc3ccc(OC(=O)OC)cc3)C(O)C3(O)C(=O)C(C)=CC32)C2C(C)(C)C12OC(=O)C(C)CC (centres unmarked) [SUW427]
NF-κB activation (optical density, 630 nm) (NF-κB pathway; 50 nM): 0.33 optical density, 630 nm
NF-κB activation (optical density, 630 nm) (NF-κB pathway; 500 nM): 0.64 optical density, 630 nm
HIV latency reversal time course in words (J-Lat clone 10.6 cells; 100 nM): clear delayed HIV latency reversal
maximal latency reversal, % of cells (J-Lat clone 10.6 cells; 250 nM, 48 hours): > 90 % of cells
HIV latency reversal time course in words (J-Lat clone 10.6 cells; 250 nM): almost converged with its parent compound at all time points and reached maximal latency reversal

CCC/C=C/C=C/C(=O)O[C@H]1/C(=C/C(=O)OC)C[C@H]2C[C@H]([C@@H](C)O)OC(=O)C[C@H](O)C[C@@H]3C[C@H](OC(C)=O)C(C)(C)[C@](O)(C[C@@H]4C/C(=C/C(=O)OC)C[C@H](/C=C/C(C)(C)[C@]1(O)O2)O4)O3 [bryostatin 1, reference compound]
NF-κB activation (optical density, 630 nm) (NF-κB pathway; 50 nM): 0.47 optical density, 630 nm
NF-κB activation (optical density, 630 nm) (NF-κB pathway; 500 nM): 0.41 optical density, 630 nm
latency reversal, % of cells (J-Lat clone 10.6 cells; maximally effective at 40 nM or higher, 48 hours): 12 % of cells

prostratin-C13-naphthyl acetate
potency as an LRA relative to prostratin (latent HIV): > 130 fold
